Measurements from ChEMBL document CHEMBL1139737, “Distachyasin: A new antioxidant metabolite from the leaves of Carex distachya” (Bioorg Med Chem Lett, 2006).

Experiments:
Format in all cases: functional
[1] = Superoxide radical scavenging activity at 0.5 mg/ml
[2] = Nitric oxide radical scavenging activity
[3] = Inhibition of TBARS formation at 0.5 mg/ml
[4] = Hydrogen peroxide radical scavenging activity at 0.1 mg/ml
[5] = Nitric oxide radical scavenging activity assessed as reduction in nitrite concentration at 0.5 mg/ml; parameters: scale not given: the % may be the effect or the level left
[6] = Inhibition of TBARS formation
[7] = Hydrogen peroxide radical scavenging activity at 0.2 mg/ml

COC1=CC(=O)[C@@]2(O)C[C@H]3[C@H](c4ccccc4C3(C)C)[C@@H](O)C2=C1
Activity [1]: 60% | Activity [2]: Dose-dependent effect | inhibition [3]: 59% | Activity [4]: 32% | Activity [5]: 10.7% | Activity [6]: Dose-dependent effect | Activity [7]: 39%
